The record followed here is ChEMBL document CHEMBL3870326, “Synthesis and structure activity relationships of glycine amide derivatives as novel Vascular Adhesion Protein-1 inhibitors” (Bioorg Med Chem, 2017).

Data set [1] can be described thus: Metabolic stability in liver microsomes (unknown origin). Format: ADME.
Data set [2] is described as follows: Solubility of the compound. It counts as physicochemical.
A short description of data set [3]: Stability in Wistar rat blood assessed as parent compound remaining at 1 ug/ml after 1 hr by LC-MS/MS analysis. The settings on record: read-out: Stability. It counts as ADME, tissue-based.
The conditions of data set [4]: pampa, pH 6.5, 2 h, 50 µM.
A short description of the next data set: in vitro. The settings on record: PAMPA, pH 6.5.
Data set [5] in a line: Half life in Wistar rat plasma at 1 mg/kg, po by LC-MS/MS analysis. Format: ADME, organism-based.
Data set [6] can be described thus: Total clearance in Wistar rat plasma at 1 mg/kg, iv by LC-MS/MS analysis. It counts as ADME, organism-based.
Data set [7] in a line: Cmax in Wistar rat plasma at 1 mg/kg, po by LC-MS/MS analysis. Format: ADME, organism-based. Details: dose 1 mg/kg, route oral.
The nature of data set [8]: AUC (0 to 24 hrs) in Wistar rat plasma at 1 mg/kg, iv by LC-MS/MS analysis. It counts as ADME, organism-based. Details: time < 24 hr, dose 1 mg/kg, route intravenous.
Data set [9] in a line: AUC (0 to 24 hrs) in Wistar rat plasma at 1 mg/kg, po by LC-MS/MS analysis. Details: dose 1 mg/kg, time < 24 hr, route oral. Format: ADME, organism-based.
Data set [10] is described as follows: Oral bioavailability in Wistar rat plasma at 1 mg/kg by LC-MS/MS analysis. Format: ADME, organism-based.
A short description of data set [11]: Volume of distribution at steady state in Wistar rat plasma at 1 mg/kg, iv by LC-MS/MS analysis. Format: ADME, organism-based. The settings on record: read-out: Vdss.
The nature of data set [12]: Half life in Wistar rat plasma at 1 mg/kg, iv by LC-MS/MS analysis. Format: ADME, organism-based.

Structures are written as SMILES.

Turning to `Cl.NCC(=O)NCc1cccc(-c2ccccc2)c1`, the Stability result in data set [1] is “Stable”. In addition, in [2], the solubility entry is on record as “Soluble”. In data set [3], the remaining at 1 h, 1 ug/ml was 33%. In addition, in data set [4], the Peff result was “Permeable”.
Compound `CCNC(=O)c1ccc(-c2cccc(CN(C)C(=O)CN)c2)cc1.Cl` gave a Papp at 2 h, 50 µM in the data set “in vitro” of less than 0.2 ×10⁻⁶ cm/s.
On the same count and under the same terms, the figure for `CCN(CC)C(=O)c1ccc(-c2cccc(CN(C)C(=O)CN)c2)cc1.O=C(O)C(=O)O` is 3.8 ×10⁻⁶ cm/s.
In the case of `CN(Cc1cccc(-c2ccc(N3CCOCC3)cc2)c1)C(=O)CN.O=C(O)C(=O)O`, the half-life in data set [5] is 34.8 min; in data set [12] it was 28.2 min. In addition, the clearance in data set [6] was 134 mL/min/kg. Besides, the peak level in [7] (Cmax) was 73.4 ng/mL. In the data set “in vitro”, this compound displayed a Papp at 2 h, 50 µM of 22.1 ×10⁻⁶ cm/s. Besides, the AUC(0-t) at 24 h in [8] came out at 127 ng·h/mL; in data set [9] it was 69.6 ng·h/mL. In addition, the bioavailability in data set [10] worked out at 54.9%. In addition, the Vd in [11] was found to be 6.06 L/kg.

One may read the Papp as the rate of passage across a membrane or cell layer, normalised by area and donor concentration. A higher Papp goes with ready permeation. Broadly, the half-life is the time in which the quantity being followed falls by half. Higher therefore signals slow loss. The clearance is a measure of how efficiently the substance is removed, as volume per time. Low readings indicate a low capacity for elimination, high ones a high capacity for elimination. A word on the Cmax: it is the highest concentration seen after dosing. As a reminder, the AUC(0-t) is exposure summed from dosing to a finite time, without extrapolation to infinity. Higher therefore signals more exposure. For orientation: bioavailability means dose-corrected exposure relative to a reference, in per cent. Read a high bioavailability as good availability.
